Experimental data as given in patent publication US9428493B2, “Schweinfurthin analogues” (University of Iowa Research Foundation, priority 2012, dated 2016).

Test system: efflux pump
Test: efflux pump substrate activity
Assay type: in vitro ADME
Text: For the treatment of certain diseases, it may be beneficial to have a therapeutic agent that is not an efflux pump substrate. […] In one embodiment of the invention R^2 is (C1-C15)alkyl or (C2-C15) alkenyl. In one embodiment of the invention R^4 is (C1-C15)alkyl or (C2-C15)alkenyl. In one embodiment of the invention R^4 is (C1-C6)alkyl.

| SMILES | efflux pump substrate |
| --- | --- |
| COc1cc(/C=C/c2cc(O)c3c(CC=C(C)C)c[nH]c3c2)cc2c1O[C@]1(C)CC[C@@H](O)C(C)(C)[C@H]1C2 [Compound 10] | diminished activity as efflux pump substrates compared to Compound 4 |
| COc1cc(/C=C/c2cc(O)c3c(c2)C[C@@H]2C(C)(C)[C@H](O)CC[C@@]2(C)O3)cc2c1ccn2C [Compound 9] | diminished activity as efflux pump substrates compared to Compound 4 |
| COc1cc(/C=C/c2cc(OC)c3cc[nH]c3c2)cc2c1O[C@]1(C)CC[C@@H](O)C(C)(C)[C@H]1C2 [Compound 4, reference compound] | found to be an efflux pump substrate |
| COc1cc(/C=C/c2cc(O)c3ccn(C)c3c2)cc2c1O[C@]1(C)CC[C@@H](O)C(C)(C)[C@H]1C2 [Compound 7] | diminished activity as efflux pump substrates compared to Compound 4 |
